# Measurements: patent US20240122930A1, “INTEGRIN INHIBITORS AND USES THEREOF IN COMBINATION WITH OTHER AGENTS” (Pliant Therapeutics, Inc., priority 2022, published 2024)
# Where two headings read alike, the source gives them in different places.
# Tested on: participants with idiopathic pulmonary fibrosis (IPF)
# [1] = 320 mg (n = 22), treatment up to 40 weeks
# [2] = All 40-160 mg (n = 67), 12 weeks
# [3] = All 40-320 mg (n = 88), 12 weeks
# [4] = pooled 40-160 mg, With Background SoC (n = 55), 12 weeks
# [5] = pooled 40-160 mg, With Background SoC nintedanib or pirfenidone (n = 55), 12 weeks
# [6] = pooled 40-160 mg, Without Background SoC (n = 12), 12 weeks
# [7] = single participant, 320 mg, after week 12, not drug related, resolved
# [8] = single participant, 320 mg, after week 12, not drug related, resolved with sequalae
# Excerpt: The groups were stratified for the use of nintedanib or pirfenidone. The groups were screened 28 days before the Day 1 of the study. At Day 1, baseline values were collected. During week 12, the subjects received the last dose, and the study was ended at week 14. Primary and secondary endpoints of the study included safety, tolerability, and PK. Exploratory endpoints included change in FVC over 12 weeks; High Resolution CT-based Quantitative Lung Fibrosis (QLF) imaging; patient-reported outcome (PRO): VAS-cough severity; and effect on selected biomarkers.
# The groups were stratified for the use of nintedanib or pirfenidone. The screening was done 28 days before Day 1 and the baseline was measured on Day 1. The last dose was on Week 12, and the end of study was on Week 14. The primary and secondary endpoints include safety, tolerability, and PK. Exploratory Endpoints include change in Forced Vital Capacity (FVC) over 12 weeks, High Resolution CT-based Quantitative Lung Fibrosis (QLF) imaging, and effect on selected biomarkers.
# The groups were stratified for the use of nintedanib or pirfenidone. The groups were screened 28 days before the Day 1 of the study. At Day 1, baseline values were collected. The study was continued up to Week 48. The treatment duration per protocol is at least 24 weeks and at most 48 weeks. For the study, the primary and secondary endpoints evaluated in the trial were safety, tolerability, and pharmacokinetics. The exploratory endpoints evaluated included the change in FVC over 12 and 24 weeks; high Resolution CT-based Quantitative Lung Fibrosis (QLF) imaging; patient-reported cough severity; and effect on selected biomarkers.
structure (smiles),measurement,setting,value
"COCCN(CCCCc1ccc2c(n1)NCCC2)CC[C@H](Nc1ncnc2ccccc12)C(=O)O [Compound 5, (S)-4-((2-methoxyethyl) (4-(5,6,7,8-tetrahydro-1,8-naphthyridin-2-yl)butyl)amino)-2-(quinazolin-4-ylamino) butanoic acid]","TEAE Dyspnoea, participants reporting",[1],5 n
same,TEAE Idiopathic Pulmonary Fibrosis related to study drug,[1],0 n
same,"TEAE Idiopathic Pulmonary Fibrosis, % of participants",[1],(18.2) %
same,"TEAE Idiopathic Pulmonary Fibrosis, participants reporting",[1],4 n
same,TEAE Leading to Death,[1],1 n
same,"TEAE Leading to Death, % of participants",[1],(4.5) ^3%
same,TEAE Leading to Early Termination from Study,[1],3 n
same,"TEAE Leading to Early Termination from Study, % of participants",[1],"(13.6) ^2,3,4%"
same,TEAE Leading to Interruption of Study Drug,[1],4 n
same,"TEAE Leading to Interruption of Study Drug, % of participants",[1],(18.2) ^2%
same,TEAE Leading to Withdrawal of Study Drug,[1],3 n
same,"TEAE Leading to Withdrawal of Study Drug, % of participants",[1],"(13.6) ^2,3,4%"
same,TEAE Upper respiratory tract infection related to study drug,[1],0 n
same,"TEAE Upper respiratory tract infection, % of participants",[1],(9.1) %
same,"TEAE Upper respiratory tract infection, participants reporting",[1],2 n
same,TEAE of CTCAE Grade 3 or Higher,[1],5 n
same,"TEAE of CTCAE Grade 3 or Higher related to study drug, % of participants",[1],(4.5) ^1%
same,"TEAE of CTCAE Grade 3 or Higher, % of participants",[1],(22.7) %
same,TEAE related to study drug,[1],5 n
same,"TEAE related to study drug, % of participants",[1],(22.7) %
same,"TEAE, % of participants",[1],(90.9) %
same,"TEAE, participants reporting",[1],20 n
same,TEAE of CTCAE Grade 3 or Higher related to study drug,"320 mg (n = 22), treatment up to 40 weeks, blood pressure increased",1 n
same,Safety and tolerability,"320 mg, long-term treatment up to 40 weeks",well tolerated
same,"Any AEs, % of participants",[2],(68.7) %
same,"Any AEs, participants reporting",[2],46 n
same,Serious TEAE,[2],3 n
same,Serious TEAE related to study drug,[2],0 n
same,"Serious TEAE, % of participants",[2],(4.5) %
same,"TEAE Diarrhea (any causality), % of participants",[2],(17.9) %
same,"TEAE Diarrhea (any causality), participants reporting",[2],12 n
same,"TEAE Diarrhea related to study drug, % of participants",[2],(11.9) %
same,"TEAE Diarrhea related to study drug, participants reporting",[2],8 n
same,TEAE Leading to Death,[2],0 n
same,TEAE Leading to Early Termination from Study,[2],0 n
same,TEAE Leading to Interruption of Study Drug,[2],1 n
same,"TEAE Leading to Interruption of Study Drug, % of participants",[2],(1.5) %
same,TEAE Leading to Withdrawal of Study Drug,[2],0 n
same,TEAE of CTCAE Grade 3 or Higher,[2],4 n
same,TEAE of CTCAE Grade 3 or Higher related to study drug,[2],1 n
same,"TEAE of CTCAE Grade 3 or Higher related to study drug, % of participants",[2],(1.5) %
same,"TEAE of CTCAE Grade 3 or Higher, % of participants",[2],(6.0) %
same,TEAE related to study drug,[2],15 n
same,"TEAE related to study drug, % of participants",[2],(22.4) %
same,"TEAE, % of participants",[2],(67.2) %
same,"TEAE, participants reporting",[2],45 n
same,"Any AEs, % of participants",[3],72.7%
same,"Any AEs, participants reporting",[3],64 n
same,Serious TEAE,[3],4 n
same,Serious TEAE related to study drug,[3],0 n
same,"Serious TEAE, % of participants",[3],4.5%
same,"TEAE Diarrhea (any causality), % of participants",[3],17.0%
same,"TEAE Diarrhea (any causality), participants reporting",[3],15 n
same,"TEAE Diarrhea related to study drug, % of participants",[3],11.4%
same,"TEAE Diarrhea related to study drug, participants reporting",[3],10 n
same,TEAE Leading to Death,[3],1 n
same,"TEAE Leading to Death, % of participants",[3],1.1%
same,TEAE Leading to Early Termination from Study,[3],3 n
same,"TEAE Leading to Early Termination from Study, % of participants",[3],3.4%
same,TEAE Leading to Interruption of Study Drug,[3],2 n
same,"TEAE Leading to Interruption of Study Drug, % of participants",[3],2.3%
same,TEAE Leading to Withdrawal of Study Drug,[3],3 n
same,"TEAE Leading to Withdrawal of Study Drug, % of participants",[3],3.4%
same,TEAE of CTCAE Grade 3 or Higher,[3],6 n
same,TEAE of CTCAE Grade 3 or Higher related to study drug,[3],1 n
same,"TEAE of CTCAE Grade 3 or Higher related to study drug, % of participants",[3],1.1%
same,"TEAE of CTCAE Grade 3 or Higher, % of participants",[3],6.8%
same,TEAE related to study drug,[3],19 n
same,"TEAE related to study drug, % of participants",[3],21.6%
same,"TEAE, % of participants",[3],70.5%
same,"TEAE, participants reporting",[3],62 n
same,SAE Acute respiratory failure: Standard Toxicity Grade,"one participant, 40 mg, not treatment related, dose not changed, recovered/resolved",Grade 3
same,SAE Idiopathic pulmonary fibrosis (acute exacerbation): Standard Toxicity Grade,"one participant, 160 mg, not treatment related, about 2 weeks after 12-week treatment, not recovered/not resolved",Grade 3
same,SAE Atrial flutter: Standard Toxicity Grade,"one participant, 160 mg, not treatment related, underlying disease, recovered/resolved",Grade 3
same,SAE Acute respiratory failure: Standard Toxicity Grade,"one participant, 320 mg, GAP Stage III, after elective atrioventricular node ablation, not treatment related, drug withdrawn, fatal",Grade 5
same,"AE leading to withdrawal, Diarrhea: Standard Toxicity Grade","one participant, 320 mg, receiving nintedanib, recovered/resolved",Grade 1
same,"Any AEs, % of participants",[4],(69.1) %
same,"Serious TEAE, % of participants",[4],(5.5) %
same,"TEAE of CTCAE Grade 3 or Higher related to study drug, % of participants",[4],(1.8) %
same,"TEAE of CTCAE Grade 3 or Higher, % of participants",[4],(7.3) %
same,"TEAE related to study drug, % of participants",[4],(23.6) %
same,"TEAE, % of participants",[4],(67.3) %
same,"Any AEs, participants reporting",[5],38 n
same,Serious TEAE,[5],3 n
same,Serious TEAE related to study drug,[5],0 n
same,TEAE Leading to Death,[5],0 n
same,TEAE Leading to Early Termination from Study,[5],0 n
same,TEAE Leading to Interruption of Study Drug,[5],0 n
same,TEAE Leading to Withdrawal of Study Drug,[5],0 n
same,TEAE of CTCAE Grade 3 or Higher,[5],4 n
same,TEAE of CTCAE Grade 3 or Higher related to study drug,[5],1 n
same,TEAE related to study drug,[5],13 n
same,"TEAE, participants reporting",[5],37 n
same,"Any AEs, % of participants",[6],(66.7) %
same,"Any AEs, participants reporting",[6],8 n
same,Serious TEAE,[6],0 n
same,Serious TEAE related to study drug,[6],0 n
same,TEAE Leading to Death,[6],0 n
same,TEAE Leading to Early Termination from Study,[6],0 n
same,TEAE Leading to Interruption of Study Drug,[6],1 n
same,"TEAE Leading to Interruption of Study Drug, % of participants",[6],(8.3) %
same,TEAE Leading to Withdrawal of Study Drug,[6],0 n
same,TEAE of CTCAE Grade 3 or Higher,[6],0 n
same,TEAE of CTCAE Grade 3 or Higher related to study drug,[6],0 n
same,TEAE related to study drug,[6],2 n
same,"TEAE related to study drug, % of participants",[6],(16.7) %
same,"TEAE, % of participants",[6],(66.7) %
same,"TEAE, participants reporting",[6],8 n
same,SAE Pneumonia: Standard Toxicity Grade,"same participant, 40 mg, not treatment related, removed carpet from home without a mask, recovered/resolved",Grade 2
same,SAE Iron Deficiency anemia: Standard Toxicity Grade,"single participant, 320 mg, Week 29, not drug related, resolved with sequalae",Grade 3
same,SAE Ileus: Standard Toxicity Grade,"single participant, 320 mg, after week 12 (Week 21 hospitalization), not drug related, resolved",Grade 3
same,SAE Acute Kidney Injury: Standard Toxicity Grade,[7],Grade 2
same,SAE Gastritis: Standard Toxicity Grade,[7],Grade 2
same,SAE Hyperlactatemia: Standard Toxicity Grade,[7],Grade 2
same,SAE Acute Left Heart Failure: Standard Toxicity Grade,[8],Grade 3
same,SAE Gastric Ulcer: Standard Toxicity Grade,[8],Grade 3
same,SAE Haemorrhagic arteriovenous malformation: Standard Toxicity Grade,[8],Grade 3
